biological target: PIK3CG (human) (UniProt P48736); assay: Inhibition of PIK3CG Kinase Activity
Sequence (P48736 whole entry, looked up): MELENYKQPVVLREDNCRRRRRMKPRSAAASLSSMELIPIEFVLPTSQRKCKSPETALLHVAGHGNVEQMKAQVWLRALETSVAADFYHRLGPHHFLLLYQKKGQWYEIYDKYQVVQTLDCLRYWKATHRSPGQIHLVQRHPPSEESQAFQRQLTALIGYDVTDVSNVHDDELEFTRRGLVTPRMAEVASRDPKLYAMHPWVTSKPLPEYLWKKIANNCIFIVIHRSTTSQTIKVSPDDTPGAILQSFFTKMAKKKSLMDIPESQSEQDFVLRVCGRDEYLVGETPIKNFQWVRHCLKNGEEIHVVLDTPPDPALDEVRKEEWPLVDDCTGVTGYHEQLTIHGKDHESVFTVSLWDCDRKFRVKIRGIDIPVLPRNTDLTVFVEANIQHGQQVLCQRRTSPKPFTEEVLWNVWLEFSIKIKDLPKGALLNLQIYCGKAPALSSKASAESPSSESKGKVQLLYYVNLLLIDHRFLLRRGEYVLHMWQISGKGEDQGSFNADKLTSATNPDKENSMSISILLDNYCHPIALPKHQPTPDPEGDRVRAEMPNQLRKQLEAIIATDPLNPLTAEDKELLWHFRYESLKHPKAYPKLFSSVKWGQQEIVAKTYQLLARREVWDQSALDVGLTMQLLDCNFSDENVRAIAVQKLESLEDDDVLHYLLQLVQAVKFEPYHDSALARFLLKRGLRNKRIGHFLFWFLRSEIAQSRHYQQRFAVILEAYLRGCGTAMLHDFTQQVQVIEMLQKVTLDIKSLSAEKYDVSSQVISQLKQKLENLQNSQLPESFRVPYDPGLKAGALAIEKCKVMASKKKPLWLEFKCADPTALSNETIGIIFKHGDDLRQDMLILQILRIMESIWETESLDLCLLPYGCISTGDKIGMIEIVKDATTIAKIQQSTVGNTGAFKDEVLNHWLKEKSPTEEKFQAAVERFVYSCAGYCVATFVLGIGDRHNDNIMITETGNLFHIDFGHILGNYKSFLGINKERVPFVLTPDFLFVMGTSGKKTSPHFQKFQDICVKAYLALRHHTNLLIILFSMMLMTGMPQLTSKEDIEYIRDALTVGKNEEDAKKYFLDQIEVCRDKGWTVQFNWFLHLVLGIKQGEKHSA

Row | Compound | IC50 [nM]
1 | CC(C)c1nnc(CCNC(=O)Nc2nc3c(s2)-c2c(cnn2-c2ccccc2C(F)(F)F)C3)o1 | < 800
2 | CCc1cc(CC)n(CCNC(=O)Nc2nc3c(s2)-c2c(cnn2-c2ccccc2C(F)(F)F)C3)n1 | < 800
3 | Cc1cc(=O)n(CCNC(=O)Nc2nc3c(s2)-c2c(cnn2-c2ccccc2C(F)(F)F)C3)[nH]1 | < 800
4 | CCCNC(=O)Nc1nc2c(s1)-c1c(cnn1-c1cccc(F)c1C(F)(F)F)C2 | < 800
5 | CCn1cnc(CCNC(=O)Nc2nc3c(s2)-c2c(cnn2-c2ccccc2C(F)(F)F)C3)c1 | < 800
6 | CC(C)CNC(=O)Nc1nc2c(s1)-c1c(cnn1-c1ccccc1Cl)C2 | < 800
7 | CCNC(=O)Nc1nc2c(s1)-c1c(cnn1-c1cc(Cl)ccc1Cl)C2 | < 800
8 | Cc1c[nH]c(CCNC(=O)Nc2nc3c(s2)-c2c(cnn2-c2ccccc2Cl)C3)n1 | < 800
9 | CCOC(Cn1nc(CCNC(=O)Nc2nc3c(s2)-c2c(cnn2-c2ccccc2C(F)(F)F)C3)cc1N)OCC | < 800
10 | CCCn1cnc(CCNC(=O)Nc2nc3c(s2)-c2c(cnn2-c2ccccc2C(F)(F)F)C3)c1 | < 800
11 | O=C(NCc1ccccc1N1CCCCC1)Nc1nc2c(s1)-c1c(cnn1-c1ccccc1Cl)C2 | < 800
12 | CN(Cc1cnn(C)c1)C(=O)Nc1nc2c(s1)-c1c(cnn1-c1ccccc1C(F)(F)F)C2 | < 800
13 | O=C(NCCc1ccccn1)Nc1nc2c(s1)-c1c(cnn1-c1ccccc1Cl)C2 | < 800
14 | CC(C)(C)CCNC(=O)Nc1nc2c(s1)-c1c(cnn1-c1ccccc1Cl)C2 | < 800
15 | CC(=O)NC1CCN(C(=O)Nc2nc3c(s2)-c2c(cnn2-c2ccccc2Cl)C3)C1 (stereo unspecified) | < 800
16 | CCOC(=O)CNC(=O)Nc1nc2c(s1)-c1c(cnn1-c1ccccc1C(F)(F)F)C2 | < 800
17 | CC(NC(=O)Nc1nc2c(s1)-c1c(cnn1-c1ccccc1Cl)C2)c1cccc(NC(=O)OC(C)(C)C)c1 (stereo unspecified) | < 800
18 | CN(C(=O)OC(C)(C)C)C1CCN(C(=O)Nc2nc3c(s2)-c2c(cnn2-c2ccccc2Cl)C3)C1 (stereo unspecified) | < 800
19 | O=C(O)CCCNC(=O)Nc1nc2c(s1)-c1c(cnn1-c1ccccc1C(F)(F)F)C2 | < 800
20 | Cc1cc(-c2ccco2)n(CCNC(=O)Nc2nc3c(s2)-c2c(cnn2-c2ccccc2C(F)(F)F)C3)n1 | < 800
21 | O=C(Nc1nc2c(s1)-c1c(cnn1-c1ccccc1Cl)C2)N1CCC2(CC1)C(=O)NCN2c1ccccc1 | < 800
22 | CN(Cc1cccs1)C(=O)Nc1nc2c(s1)-c1c(cnn1-c1ccccc1C(F)(F)F)C2 | < 800
23 | O=C(NCC1CC1)Nc1nc2c(s1)-c1c(cnn1-c1ccccc1C(F)(F)F)C2 | < 800

Row | Compound | IC50 [nM]
24 | O=C(NCc1cccnc1)Nc1nc2c(s1)-c1c(cnn1-c1ccccc1C(F)(F)F)C2 | < 800
25 | Cn1cc(CNC(=O)Nc2nc3c(s2)-c2c(cnn2-c2ccccc2C(F)(F)F)C3)cn1 | < 800
26 | CCc1cc(=O)n(CCNC(=O)Nc2nc3c(s2)-c2c(cnn2-c2ccccc2C(F)(F)F)C3)[nH]1 | < 800
27 | Cc1ccc(CN2CC(NC(=O)Nc3nc4c(s3)-c3c(cnn3-c3ccccc3Cl)C4)CC2=O)cc1 (stereo unspecified) | < 800
28 | COc1ccccc1C1CCN(C(=O)Nc2nc3c(s2)-c2c(cnn2-c2ccccc2Cl)C3)C1 (stereo unspecified) | < 800
29 | O=C(NCCc1nc(C2CC2)no1)Nc1nc2c(s1)-c1c(cnn1-c1ccccc1Cl)C2 | < 800
30 | NC(=O)Nc1nc2c(s1)-c1c(cnn1-c1cccc(F)c1C(F)(F)F)C2 | < 800
31 | CCCn1ccc(CNC(=O)Nc2nc3c(s2)-c2c(cnn2-c2ccccc2C(F)(F)F)C3)n1 | < 800
32 | CN(C)C(=O)CNC(=O)Nc1nc2c(s1)-c1c(cnn1-c1cc(Cl)ccc1Cl)C2 | < 800
33 | O=C(NCc1nnn[nH]1)Nc1nc2c(s1)-c1c(cnn1-c1ccccc1Cl)C2 | < 800
34 | NC(=O)Nc1nc2c(s1)-c1c(cnn1-c1ccccc1C(F)(F)F)C2 | < 800
35 | Nc1cc(CCNC(=O)Nc2nc3c(s2)-c2c(cnn2-c2ccccc2C(F)(F)F)C3)nn1CC(F)(F)F | < 800
36 | Cc1cc(C)n(CCNC(=O)Nc2nc3c(s2)-c2c(cnn2-c2ccccc2C(F)(F)F)C3)n1 | < 800
37 | NC(=O)Nc1nc2c(s1)-c1c(cnn1-c1cc(Cl)ccc1Cl)C2 | < 800
38 | Nc1cc(CCNC(=O)Nc2nc3c(s2)-c2c(cnn2-c2ccccc2C(F)(F)F)C3)nn1Cc1ccccc1 | < 800
39 | Cc1cc(C2CCCCC2)n(CCNC(=O)Nc2nc3c(s2)-c2c(cnn2-c2ccccc2C(F)(F)F)C3)n1 | < 800
40 | CCn1cc(CNC(=O)Nc2nc3c(s2)-c2c(cnn2-c2ccccc2C(F)(F)F)C3)cn1 | < 800
41 | CCN1CCC[C@@H]1CNC(=O)Nc1nc2c(s1)-c1c(cnn1-c1ccccc1Cl)C2 | < 800
42 | CCCCNC(=O)Nc1nc2c(s1)-c1c(cnn1-c1cccc(F)c1C(F)(F)F)C2 | < 800
43 | CCCCNC(=O)Nc1nc2c(s1)-c1c(cnn1-c1ccccc1Cl)C2 | < 800
44 | Cc1nn(C)cc1CNC(=O)Nc1nc2c(s1)-c1c(cnn1-c1ccccc1C(F)(F)F)C2 | < 800
45 | CCn1cnc(CCNC(=O)Nc2nc3c(s2)-c2c(cnn2-c2ccccc2Cl)C3)c1 | < 800
46 | O=C(NCc1cccc(N2CCNC2=O)c1)Nc1nc2c(s1)-c1c(cnn1-c1ccccc1Cl)C2 | < 800

Reference: the Kinase Knowledgebase extract (Sharma et al. 2016)
